Reference: patent US6291485A, “4,5-dihydro-[1H]-benz[g]indazole-3-carboxylic acid derivatives” (Teikoku Hormone Mfg. Co., Ltd., priority 1997, dated 2001)

Experiments:
ETB receptor = target: T1, ETB receptor (Homo sapiens, UniProt P24530); experiment: binding of 125I-ET-1 to crude receptor membrane fraction from the human placenta (ETB); settings: human placenta membranes, 125I-ET-1, 25° C., 120 minutes, pH 7.0
T1 construct: a crude receptor membrane fraction from the human placenta; from tissue; host or cells: human placenta, crude membrane fraction
T1 sequence (P24530 27-442): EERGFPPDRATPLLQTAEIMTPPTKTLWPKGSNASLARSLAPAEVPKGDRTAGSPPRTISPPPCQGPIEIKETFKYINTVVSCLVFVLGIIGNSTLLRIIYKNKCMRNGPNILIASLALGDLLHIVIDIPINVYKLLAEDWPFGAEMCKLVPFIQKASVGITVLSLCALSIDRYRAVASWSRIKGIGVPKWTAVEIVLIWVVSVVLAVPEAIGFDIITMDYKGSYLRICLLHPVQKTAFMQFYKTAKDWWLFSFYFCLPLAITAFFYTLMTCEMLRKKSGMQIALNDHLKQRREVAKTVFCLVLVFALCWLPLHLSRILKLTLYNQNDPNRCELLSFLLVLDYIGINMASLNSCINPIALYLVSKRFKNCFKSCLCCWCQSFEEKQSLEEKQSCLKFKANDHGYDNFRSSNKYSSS
Method: (§1) (1) Measurement of Antagonism to Endothelin Receptors
(§2) Among the endothelin (ET) receptor subtypes, the binding of ET to the ETA and ETB subtypes was measured by using a crude receptor membrane fraction from the porcine thoracic aorta and a crude receptor membrane fraction from the human placenta, respectively. The tissue (about 40 g) as washed, minced with scissors, and homogenized in 4 volumes of solution A [20 mM HEPES (N-2-hydroxyethylpiperazine-N'-2-ethanesulfonic acid), 3 mM EGTA (ethylene glycol bis(β-aminoethyl ether)-N,N,N',N'-tetraacetic acid), 5 mM EDTA (ethylenediaminetetraacetic acid), 2 μg/ml aprotinin, 3 μg/ml leupeptin, 3 μg/ml pepstatin A, 0.25 mg/ml bacitracin, 0.25 M sucrose] by means of an Ultra-turrax. The resulting homogenate was centrifuged at 8,000 g for 20 minutes, and the supernatant was further centrifuged at 80,000 g for 60 minutes. The precipitate was suspended in solution A and used as a crude receptor membrane fraction, which was divided into portions and stored in a frozen state at -70° C. As a radioligand, 325 Bq of ^125 I-ET-1 (81.4 TBq/mmol; manufactured by DuPont-New England Nuclear, Boston, Mss., U.S.A) was placed in a test tube. Then, the crude receptor membrane fraction (20 μg as protein) and a test compound were added thereto. Nonspecific binding was measured by the addition of 125 nM ET-1. The reaction was carried out in solution B [30 mM HEPES, 0.15 M NaCl, 5 mM MgCl2, 0.5 mg/ml bacitracin, 1 mg/ml bovine serum albumin, pH 7.0) at 25° C. for 120 minutes. In order to separate the free radioactive ligand from the membrane-bound one, the reaction mixture was quickly filtered through a glass filter treated with 0.3% polyethylene-imine (GF/C; manufactured by Whatman Inc., U.S.A.) and washed twice with ice-cold solution B. Thereafter, the radioactivity remaining on the filter was measured with a gamma counter.

ETA receptor = target: T2, ETA receptor (Sus scrofa, UniProt Q29010); experiment: binding of 125I-ET-1 to crude receptor membrane fraction from the porcine thoracic aorta (ETA); settings: porcine thoracic aorta membranes, 125I-ET-1, 25° C., 120 minutes, pH 7.0
T2 construct: crude receptor membrane fraction from the porcine thoracic aorta; from tissue; host or cells: porcine thoracic aorta, crude membrane fraction
T2 sequence (Q29010 21-427): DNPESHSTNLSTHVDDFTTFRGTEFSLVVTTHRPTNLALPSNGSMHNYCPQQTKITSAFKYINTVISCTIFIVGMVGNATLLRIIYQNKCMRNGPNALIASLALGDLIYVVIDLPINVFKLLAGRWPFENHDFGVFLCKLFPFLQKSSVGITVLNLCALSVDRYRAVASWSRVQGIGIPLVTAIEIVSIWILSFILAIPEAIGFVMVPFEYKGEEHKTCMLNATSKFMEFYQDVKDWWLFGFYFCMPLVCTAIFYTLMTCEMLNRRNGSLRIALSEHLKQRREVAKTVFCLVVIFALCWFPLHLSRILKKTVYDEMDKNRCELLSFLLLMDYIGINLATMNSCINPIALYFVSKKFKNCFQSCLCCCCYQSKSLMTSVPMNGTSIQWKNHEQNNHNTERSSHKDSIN
Method: as §1, §2

endothelin receptors = experiment: antagonism to endothelin receptors (statement in words, no subtype); format: binding
Method: as §1
as §2, with “The precipitate was suspended in solution A and used as a crude receptor membrane fraction, which was divided into portions and stored in a frozen state at -70° C. As a radioligand, 325 Bq of ^125 I-ET-1 (81.4 TBq/mmol; manufactured by DuPont-New England Nuclear, Boston, Mss., U.S.A) was placed in a test tube. Then, the crude receptor membrane fraction (20 μg as protein) and a test compound were added thereto.” left out, “The reaction was carried out in solution B [30 mM HEPES, 0.15 M NaCl, 5 mM MgCl2, 0.5 mg/ml bacitracin, 1 mg/ml bovine serum albumin, pH 7.0) at 25° C. for 120 minutes.” left out

phosphodiesterase III = target: T3, phosphodiesterase III (Cavia porcellus, UniProt H0VIU9); experiment: inhibitory effect on phosphodiesterase III ([3H] cAMP conversion, enzyme fraction from guinea pig hearts); format: biochemical; settings: for IC50: guinea pig heart enzyme, 0.1 μM [3H] cAMP, 30° C., 10 minutes, pH=8.0; for inhibitory effect on phosphodiesterase III: statement in words
T3 construct: hearts excised from male Hartley strain guinea pigs (400-600 g); from tissue; host or cells: guinea pig heart, 40,000 g supernatant, DEAE-cellulose fraction
T3 sequence (H0VIU9 1-1132): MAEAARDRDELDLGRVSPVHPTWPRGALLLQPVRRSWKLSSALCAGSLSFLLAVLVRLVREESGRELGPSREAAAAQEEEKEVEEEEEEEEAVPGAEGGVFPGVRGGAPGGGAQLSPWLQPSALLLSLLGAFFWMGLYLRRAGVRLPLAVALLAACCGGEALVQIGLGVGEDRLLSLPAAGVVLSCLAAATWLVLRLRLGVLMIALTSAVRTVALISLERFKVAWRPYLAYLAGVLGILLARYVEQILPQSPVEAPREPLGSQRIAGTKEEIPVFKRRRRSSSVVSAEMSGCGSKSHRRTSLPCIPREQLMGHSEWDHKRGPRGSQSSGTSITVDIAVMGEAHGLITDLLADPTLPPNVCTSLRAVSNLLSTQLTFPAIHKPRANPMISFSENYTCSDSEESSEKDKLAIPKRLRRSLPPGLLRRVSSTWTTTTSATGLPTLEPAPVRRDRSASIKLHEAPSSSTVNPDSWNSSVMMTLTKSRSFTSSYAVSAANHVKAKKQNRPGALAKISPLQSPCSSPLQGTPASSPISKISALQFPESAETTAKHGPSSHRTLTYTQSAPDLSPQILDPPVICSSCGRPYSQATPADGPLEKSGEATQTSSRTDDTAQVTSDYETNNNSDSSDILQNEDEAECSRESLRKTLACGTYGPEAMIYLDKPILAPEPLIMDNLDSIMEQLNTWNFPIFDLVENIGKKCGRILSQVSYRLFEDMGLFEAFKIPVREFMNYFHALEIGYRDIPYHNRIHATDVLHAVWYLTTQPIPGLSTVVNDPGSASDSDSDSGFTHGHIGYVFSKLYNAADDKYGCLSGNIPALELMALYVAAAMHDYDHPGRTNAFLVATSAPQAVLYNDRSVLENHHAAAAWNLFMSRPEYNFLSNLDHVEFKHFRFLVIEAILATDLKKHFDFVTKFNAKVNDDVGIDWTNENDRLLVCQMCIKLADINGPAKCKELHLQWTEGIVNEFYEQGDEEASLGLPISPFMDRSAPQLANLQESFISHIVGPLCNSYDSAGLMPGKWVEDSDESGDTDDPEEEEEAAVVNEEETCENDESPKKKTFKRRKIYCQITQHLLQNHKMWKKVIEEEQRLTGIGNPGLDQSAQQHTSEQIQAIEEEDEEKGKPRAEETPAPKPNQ
Method: Phosphodiesterase III was prepared according to the method of Frodsham et al. (Eur. J. Pharmacol., Vol. 211, pp. 383-391, 1992).
Specifically, hearts excised from male Hartley strain guinea pigs (400-600 g) were placed in 8 volumes of solution C [10 mM trishydroxymethyl)aminomethane-acetic acid buffer (pH=7.5), 2 mM magnesium chloride, 1 mM dithiothreitol, 2,000 units/ml aprotinin, 50 μM phenylmethylsulfonyl fluoride], minced with scissors, and homogenized three times for 10 seconds by means of a Polytron. The resulting homogenate was centrifuged at 40,000 g for 30 minutes, and the supernatant was applied onto a DEAE-cellulose column and eluted with a linear concentration gradient ranging from 0.2 M to 0.6 M sodium acetate (pH 6.5). The fractions eluted at 0.4-0.5 M were pooled and used as a phosphodiesterase III enzyme fraction.
Specifically, a test compound and the phosphodiesterase III enzyme fraction were added to 0.4 ml of a reaction solution [40 mM tris(hydroxymethyl)aminomethane-hydrochloric acid buffer (pH=8.0), 5 mM magnesium chloride, 1 mM dithiothreitol, 0.1 μM [^3 H] cAMP]. This mixture was reacted at 30° C. for 10 minutes. After completion of the reaction, 5'-nuclease was added thereto so as to convert [^3 H] 5'-AMP, which was the reaction product with phosphodiesterase III, to [^3 H] adenosine. Then, the [^3 H] cAMP and [^3 H] adenosine present in the reaction mixture were separated with the aid of an anion exchanger.

| IC50 (ETB receptor) | IC50 (ETA receptor) | IC50 (phosphodiesterase III) | Structure (SMILES) | antagonism to endothelin receptors (endothelin receptors) | inhibitory effect on phosphodiesterase III (phosphodiesterase III) |
| --- | --- | --- | --- | --- | --- |
| 153 nM | 4.5 nM | 75 nM | CCOc1cccc(C(CC)n2nc(C(=O)O)c3c2-c2ccc(OCc4cncnc4)cc2CC3)c1 (stereo not drawn) [Example 34, 4,5-dihydro-1-(3-ethoxy-α-ethylbenzyl)-7-(5-pyrimidinylmethoxy)-[1H]-benz[g]indazole-3-carboxylic acid] | excellent antagonism to endothelin receptors | inhibitory effect on phosphodiesterase III |
| 92 nM | 7.4 nM | – | CCOCC(c1cccc(OCC)c1)n1nc(C(=O)O)c2c1-c1ccc(OCc3cncnc3)cc1CC2 (stereo not drawn) [Example 41, 4,5-dihydro-1-(3-ethoxy-α-ethoxymethyl-benzyl)-7-(5-pyrimidinylmethoxy)-[1H]-benz[g]indazole-3-carboxylic acid] | – | – |
| 140 nM | 31 nM | – | COc1cccc(Cn2nc(C(=O)O)c3c2-c2ccc(OCc4cncnc4)cc2CC3)c1 [Example 2, 4,5-dihydro-1-(3-methoxybenzyl)-7-(5-pyrimidinylmethoxy)-[1H]-benz[g]indazole-3-carboxylic acid] | – | – |
| 115 nM | 16.8 nM | – | CCOc1cccc(Cn2nc(C(=O)O)c3c2-c2ccc(OCc4cncnc4)cc2CC3)c1 [Example 14] | – | – |
| 11.3 nM | 2.5 nM | 580 nM | CCOc1cccc(C(c2ccccn2)n2nc(C(=O)O)c3c2-c2ccc(OCc4cncnc4)cc2CC3)c1 (stereo not shown) [Example 70] | excellent antagonism to endothelin receptors | inhibitory effect on phosphodiesterase III |
